Test results published in patent US7335632B2, “Beta-secretase inhibitors and methods of use thereof” (CoMentis, Inc., priority 2001, dated 2008).
Read-outs that look alike come from different tables or passages of the source.

Key:
Type in all cases: biochemical
[1] = target: T1, memapsin 1 (Homo sapiens, UniProt Q9Y5Z0); assay: Inhibition of memapsin 1 beta-secretase activity (substrate peptide […], MALDI-TOF); conditions: pH 4.1, 37 degrees C., substrate NH3-ELDLAVEFWHDR-CO2, MALDI-TOF; read-out: M1 Ki
T1 sequence (Q9Y5Z0 63-518): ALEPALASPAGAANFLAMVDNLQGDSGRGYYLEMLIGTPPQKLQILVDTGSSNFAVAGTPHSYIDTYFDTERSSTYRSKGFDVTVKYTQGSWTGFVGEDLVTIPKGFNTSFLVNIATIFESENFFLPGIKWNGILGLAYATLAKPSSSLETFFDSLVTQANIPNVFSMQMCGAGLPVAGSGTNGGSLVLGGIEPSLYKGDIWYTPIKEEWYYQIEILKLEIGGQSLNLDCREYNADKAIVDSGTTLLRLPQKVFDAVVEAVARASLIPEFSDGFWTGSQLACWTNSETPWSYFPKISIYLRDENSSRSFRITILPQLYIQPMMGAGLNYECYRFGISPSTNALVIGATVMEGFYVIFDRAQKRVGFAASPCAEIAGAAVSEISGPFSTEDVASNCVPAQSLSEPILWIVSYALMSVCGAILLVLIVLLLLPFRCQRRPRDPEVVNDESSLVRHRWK

[2] = target: memapsin 2 (Homo sapiens, UniProt P56817); assay: Inhibition of memapsin 2 beta-secretase activity toward fluorogenic substrate FS-2; conditions: pH 4, 37° C., 20 minutes pre-incubation, substrate FS-2, tight-binding model; read-out: M2 Ki
Sequence of memapsin 2 (P56817 46-501): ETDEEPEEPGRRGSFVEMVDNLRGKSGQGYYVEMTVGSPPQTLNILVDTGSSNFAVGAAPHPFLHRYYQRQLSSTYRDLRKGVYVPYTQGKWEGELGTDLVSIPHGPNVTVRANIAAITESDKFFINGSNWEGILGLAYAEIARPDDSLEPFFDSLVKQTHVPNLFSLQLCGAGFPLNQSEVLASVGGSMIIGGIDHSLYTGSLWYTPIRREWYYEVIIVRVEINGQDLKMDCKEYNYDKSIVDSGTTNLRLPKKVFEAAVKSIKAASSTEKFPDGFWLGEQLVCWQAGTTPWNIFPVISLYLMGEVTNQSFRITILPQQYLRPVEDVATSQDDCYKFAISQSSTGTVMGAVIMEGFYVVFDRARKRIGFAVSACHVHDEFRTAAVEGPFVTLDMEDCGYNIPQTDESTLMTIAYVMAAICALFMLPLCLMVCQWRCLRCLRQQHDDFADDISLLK
Protocol: Potency of compounds were determined by measurement of their inhibition of memapsin 2 activity toward a fluorescent substrate. […] Briefly, assays were performed at pH 4, 37° C., by pre-incubation of memapsin 2 enzyme with compound for 20 minutes. Activity measure was initiated by addition of a fluorogenic substrate FS-2 (Bachem Americas, Torrance, Calif.). Fluorescent signal increase over time was measured as a rate of hydrolysis of the peptide substrate.

[3] = target: Cathepsin D (Homo sapiens, UniProt P07339); assay: Inhibition of cathepsin D activity (substrate peptide […], MALDI-TOF); conditions: pH 4.1, 37 degrees C., read-out: Cath D Ki
Sequence of Cathepsin D (P07339 65-412, species assumed): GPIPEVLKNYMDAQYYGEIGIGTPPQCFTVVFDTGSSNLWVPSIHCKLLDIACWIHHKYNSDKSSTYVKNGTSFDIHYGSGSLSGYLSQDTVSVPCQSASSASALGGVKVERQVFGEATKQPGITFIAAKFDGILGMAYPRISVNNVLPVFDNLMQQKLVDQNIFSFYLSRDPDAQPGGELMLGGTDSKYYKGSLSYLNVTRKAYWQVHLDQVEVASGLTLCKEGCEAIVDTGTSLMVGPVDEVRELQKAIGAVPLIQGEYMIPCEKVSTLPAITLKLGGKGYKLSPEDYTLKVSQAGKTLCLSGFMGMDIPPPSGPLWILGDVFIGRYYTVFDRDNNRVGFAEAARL

[4] = substrate NH3-[…]-CO2, MALDI-TOF

| Ki [1] [nM] | Ki [2] [nM] | Ki [3, 4] [nM] | Ki ([3]; substrate NH3-ELDLAVEFWHDR-CO2, MALDI-TOF) [nM] | SMILES |
| --- | --- | --- | --- | --- |
| > 1000 | > 1000 | > 1000 |  | Cc1csc(COC(=O)N[C@@H](CS(C)(=O)=O)C(=O)N[C@@H](CC(C)C)[C@@H](O)C[C@@H](C)C(=O)N[C@H]2CCNC2=O)n1 [Structure 83] |
| 100 to 1000 | < 100 | < 100 |  | CSC[C@H](NC(=O)[C@@H](C)Cc1nc(C)oc1C)C(=O)N[C@@H](CC(C)C)[C@@H](O)C[C@@H](C)C(=O)N[C@H](C(=O)NCC(C)C)C(C)C [Structure 97] |
| > 1000 | 100 to 1000 | < 100 |  | CSC[C@H](NC(=O)OCc1noc(C)n1)C(=O)N[C@H](CC(C)C)[C@@H](O)C[C@@H](C)C(=O)N[C@@H](C(=O)NCC(C)C)C(C)C [Structure 61] |
| > 1000 | > 1000 | 100 to 1000 |  | Cc1nc(COC(=O)N[C@@H](CS(C)(=O)=O)C(=O)N[C@H](CC(C)C)[C@@H](O)C[C@@H](C)C(=O)N[C@@H](C(=O)NCC(C)C)C(C)C)no1 [Structure 62] |
| 100 to 1000 | 100 to 1000 | 100 to 1000 |  | Cc1noc(COC(=O)N[C@@H](CS(C)(=O)=O)C(=O)N[C@H](CC(C)C)[C@@H](O)C[C@@H](C)C(=O)N[C@@H](C(=O)NCC(C)C)C(C)C)n1 [Structure 69] |
| 100 to 1000 | 100 to 1000 | < 100 |  | CSC[C@H](NC(=O)OCc1nc(C)oc1C)C(=O)N[C@@H](CC(C)C)[C@@H](O)C[C@@H](C)C(=O)N[C@H](C(=O)Nc1nccs1)C(C)C [Structure 96] |
| > 1000 | > 1000 | < 100 |  | Cc1csc(COC(=O)N[C@@H](CS(C)(=O)=O)C(=O)N[C@H](CC(C)C)[C@@H](O)C[C@@H](C)C(=O)NCC2CCC(C(=O)OCc3ccccc3)CC2)n1 (stereo partly drawn) [Structure 82] |
| 100 to 1000 | < 100 | < 100 |  | CSC[C@H](NC(=O)OCc1nc(C)cs1)C(=O)N[C@H](Cc1ccccc1)[C@@H](O)C[C@@H](C)C(=O)N[C@@H](C(=O)NCC(C)C)C(C)C [Structure 52] |
| 100 to 1000 | 100 to 1000 | 100 to 1000 |  | Cc1nc(COC(=O)N[C@@H](CS(C)(=O)=O)C(=O)N[C@H](CC(C)C)[C@@H](O)C[C@@H](C)C(=O)N[C@@H](C(=O)OCc2ccccc2)C(C)C)c(C)o1 [Structure 85] |
| > 1000 | > 1000 | < 100 |  | CSC[C@H](NC(=O)OCc1nc(C)cs1)C(=O)N[C@H](CC(C)C)[C@@H](O)C[C@@H](C)C(=O)NCC1CCC(C(=O)OCc2ccccc2)CC1 (stereo partly drawn) [Structure 76] |
| 100 to 1000 | > 1000 | < 100 |  | COc1ccc(C[C@H](NC(=O)[C@H](CS(C)(=O)=O)NC(=O)OCc2nc(C)oc2C)[C@@H](O)C[C@@H](C)C(=O)N[C@H](C(=O)NCC(C)C)C(C)C)cc1 [Structure 98] |
| > 1000 | > 1000 | > 1000 |  | Cc1csc(COC(=O)N[C@@H](CS(C)(=O)=O)C(=O)N[C@@H](CC(C)C)[C@@H](O)C[C@@H](C)C(=O)NN(C)S(C)(=O)=O)n1 [Structure 63] |
| 100 to 1000 | < 100 | < 100 |  | CC[C@H](C[C@H](O)[C@@H](CC(C)C)NC(=O)[C@H](CSC)NC(=O)OCc1nc(C)oc1C)C(=O)N[C@@H](C(=O)NCC(C)C)C(C)C [Structure 89] |
| < 100 | < 100 | 100 to 1000 |  | Cc1nc(COC(=O)N[C@@H](CS(C)(=O)=O)C(=O)N[C@H](CC(C)C)[C@@H](O)C[C@@H](C)C(=O)N[C@@H](C(=O)NCc2cccnc2)C(C)C)c(C)o1 [Structure 87] |
| < 100 | < 100 | < 100 |  | CCc1nc(COC(=O)N[C@@H](CSC)C(=O)N[C@H](CC(C)C)[C@@H](O)C[C@@H](C)C(=O)N[C@@H](C(=O)NCC(C)C)C(C)C)c(C)s1 [Structure 70] |
| < 100 | < 100 |  | < 100 | CSC[C@H](NC(=O)[C@@H](C)Cc1nc(C)cs1)C(=O)N[C@H](CC(C)C)[C@@H](O)C[C@@H](C)C(=O)N[C@@H](C(=O)NCC(C)C)C(C)C [Structure 65] |
| > 1000 | > 1000 | > 1000 |  | CSC[C@H](NC(=O)OCc1nc(C)cs1)C(=O)N[C@H](CC(C)C)[C@@H](O)C[C@@H](C)C(=O)N[C@H](CN(C)C)C(=O)NC(C)C [Structure 81] |

The next lines start with the compound.

| SMILES | Ki [1] [nM] | Ki [2] [nM] | Ki [3, 4] [nM] | Ki ([3]; substrate NH3-ELDLAVEFWHDR-CO2, MALDI-TOF) [nM] |
| --- | --- | --- | --- | --- |
| CSC[C@H](NC(=O)OCc1nccn1C)C(=O)N[C@@H](CC(C)C)[C@@H](O)C[C@@H](C)C(=O)N[C@@H](C(=O)NCC(C)C)C(C)C [Structure 6] | < 100 | > 1000 | 100 to 1000 |  |
| CC(C)CNC(=O)[C@H](NC(=O)[C@H](C)C[C@H](O)[C@@H](CC(C)C)NC(=O)[C@H](CS(C)(=O)=O)NC(=O)OCc1ccn(C)n1)C(C)C [Structure 20] | 100 to 1000 | 100 to 1000 | 100 to 1000 |  |
| CSC[C@H](NC(=O)CC(C)n1nc(C)cc1C)C(=O)N[C@@H](CC(C)C)[C@@H](O)C[C@@H](C)C(=O)N[C@H](C(=O)NCC(C)C)C(C)C (stereo partly drawn) [Structure 11] | 100 to 1000 | > 1000 | < 100 |  |
| CSC[C@H](NC(=O)OCc1coc(C)n1)C(=O)N[C@H](CC(C)C)[C@@H](O)C[C@@H](C)C(=O)N[C@@H](C(=O)NCC(C)C)C(C)C [Structure 27] | 100 to 1000 | 100 to 1000 | < 100 |  |
| Cc1nc(COC(=O)N[C@@H](CS(C)(=O)=O)C(=O)N[C@H](CC(C)C)[C@@H](O)C[C@@H](C)C(=O)N[C@@H](C(=O)NCC(C)C)C(C)C)co1 [Structure 28] | 100 to 1000 | 100 to 1000 | 100 to 1000 |  |
| Cc1nc(CCC(=O)N[C@@H](CS(C)(=O)=O)C(=O)N[C@H](CC(C)C)[C@@H](O)C[C@@H](C)C(=O)N[C@@H](C(=O)NCC(C)C)C(C)C)c(C)o1 [Structure 44] | < 100 | < 100 | 100 to 1000 |  |
| CCS(=O)(=O)C[C@H](NC(=O)OCc1nc(C)c[s+]1[O-])C(=O)N[C@H](CC(C)C)[C@@H](O)C[C@@H](C)C(=O)N[C@@H](C(=O)NCC(C)C)C(C)C (stereo partly drawn) [Structure 24] | 100 to 1000 | > 1000 | < 100 |  |
| CSC[C@H](NC(=O)CCc1nc(C)oc1C)C(=O)N[C@H](CC(C)C)[C@@H](O)C[C@@H](C)C(=O)N[C@@H](C(=O)NCC(C)C)C(C)C [Structure 41] | 100 to 1000 | < 100 | < 100 |  |
| Cc1csc(COC(=O)N[C@@H](CS(C)(=O)=O)C(=O)N[C@H](CC(C)C)[C@@H](O)C[C@@H](C)C(=O)N[C@@H](C(=O)NCc2ccncc2)C(C)C)n1 [Structure 45] | > 1000 | 100 to 1000 | 100 to 1000 |  |
| Cc1csc(COC(=O)N[C@@H](CS(C)(=O)=O)C(=O)N[C@H](CC(C)C)[C@@H](O)C[C@@H](C)C(=O)N[C@@H](C(=O)NCC(C)C)C2CCCCC2)n1 [Structure 33] | 100 to 1000 | 100 to 1000 | > 1000 |  |
| COCCOCSC[C@H](NC(=O)OCc1nc(C)cs1)C(=O)N[C@H](CC(C)C)[C@@H](O)C[C@@H](C)C(=O)N[C@@H](C(=O)NCC(C)C)C(C)C [Structure 23] | 100 to 1000 | < 100 | < 100 |  |
| C=CCSC[C@H](NC(=O)CCn1nc(C)cc1C)C(=O)N[C@@H](CC(C)C)[C@@H](O)C[C@@H](C)C(=O)N[C@H](C(=O)NCC(C)C)C(C)C [Structure 10] | < 100 | < 100 | < 100 |  |
| Cc1nc(COC(=O)N[C@@H](CS(C)(=O)=O)C(=O)N[C@H](CC(C)C)[C@@H](O)C[C@@H](C)C(=O)N[C@@H](C(=O)NCC(C)C)C(C)C)cs1 [Structure 25] | < 100 | 100 to 1000 | 100 to 1000 |  |
| COCS(=O)(=O)C[C@H](NC(=O)CCn1nc(C)cc1C)C(=O)N[C@H](CC(C)C)[C@@H](O)C[C@@H](C)C(=O)N[C@@H](C(=O)NCC(C)C)C(C)C [Structure 15] | 100 to 1000 | 100 to 1000 | 100 to 1000 |  |
| Cc1nc(COC(=O)N[C@@H](CS(C)(=O)=O)C(=O)N[C@H](CC(C)C)[C@@H](O)C[C@@H](C)C(=O)N[C@@H](C(=O)NCC(C)C)C(C)C)cs1 [Structure 26] | 100 to 1000 |  |  |  |
| CSC[C@H](NC(=O)OCc1csc(C)n1)C(=O)N[C@H](CC(C)C)[C@@H](O)C[C@@H](C)C(=O)N[C@@H](C(=O)NCC(C)C)C(C)C [Structure 21] | 100 to 1000 | 100 to 1000 | < 100 |  |
| COCSC[C@H](NC(=O)CCn1nc(C)cc1C)C(=O)N[C@H](CC(C)C)[C@@H](O)C[C@@H](C)C(=O)N[C@@H](C(=O)NCC(C)C)C(C)C [Structure 14] | < 100 | < 100 | < 100 |  |
| Cc1nc(COC(=O)N[C@@H](CS(C)(=O)=O)C(=O)N[C@H](CC(C)C)[C@@H](O)C[C@@H](C)C(=O)NCC(C)C)c(C)o1 [Structure 42] | > 1000 | > 1000 |  |  |
